# Patent US11827917B1, “Methods for the conversion of fermentable sugars to ethanol” (Colorado State University Research Foundation, priority 2020, dated 2023)
# “And” between values parts separate entries of the source, which are not always exact repeats. Equal entries are not always repeated.
# Assays:
# [1] = system: S. cerevisiae JAY 270; experiment: 1-L batch bioreactor fermentation, time course; type: cell-based, Saccharomyces cerevisiae; conditions: for Biomass Yield / Biomass yield % change vs. control / EtOH yield / EtOH yield % change vs. control / Glycerol yield / Glycerol yield % change vs. control: 1-L bioreactor, 24 hours; for Biomass yield, lower in comparison to control: addition in the fermentation medium
# Method: Yeast strain: S. cerevisiae JAY 270, as in Example 1. Inocula for bioreactor experiments with PheOH and TrpOH S. cerevisiae JAY 270 were prepared by culturing the yeast in 100 mL of YPD medium in 200-mL serum bottles overnight in a shaker at 30° C. and 200 rpm. The cells were collected by centrifuging 10 min at 4000×g and 4° C. The cell pellet was washed twice using sterile 0.8% (w/v) NaCl solution. Finally, the cell pellet was resuspended in about 15 mL of 0.8% (w/v) NaCl.
# Procedure: Fermentations were carried out in two Eppendorf BioFlo 115 bioreactors containing 1 L sterile YNB medium with 20 g/L glucose (Difco Yeast Nitrogen Base, catalog number 239210). The prepared yeast cells were inoculated in the bioreactor vessels to obtain an initial yeast cell concentration of OD600≈0.1. The fermentation was conducted at pH 5.5, 30° C., and 200 rpm agitation. Ultrapure N2 was sparged at 0.1 standard liters per minute in the bioreactor vessels to maintain anaerobic conditions. Samples were collected at different time points to monitor cell, glucose, and ethanol concentrations.
# For experiments with added PheOH, 2.0 mL of PheOH stock solution was added to one of the two vessels when the OD600 reached 1.0 to achieve a final concentration of 0.2% (w/v). In the serum bottle tests, TrpOH had stronger effects on yeast cell growth than PheOH at the same tested concentration. A study in serum bottles was then conducted to determine the TrpOH concentration that would have a similar growth inhibitory effect. […] Thus, for bioreactor experiments on the effects of TrpOH, the TrpOH was added at 0.12%. Since TrpOH was dissolved in DMSO, the same concentration of DMSO was added in the control bioreactor at the same time. All other bioreactor conditions were the same as in the PheOH test.
# Samples were collected from the bioreactors every hour post-addition for 6 h, and again after 24 hours of cultivation. Each experiment was repeated in triplicate.
# [2] = system: yeast; experiment: Yeast growth and ethanol yield in serum bottles, low/high cell inoculum (Tables 5, 6); type: cell-based
# [3] = system: S. cerevisiae JAY270; experiment: Immobilized yeast cells, batch cultivation on D. armatus hydrolysate; type: cell-based, Saccharomyces cerevisiae; conditions: 0.2%; for EtOH yield / EtOH yield % Δ from control: 24 hours
# Method: S. cerevisae JAY270 cells were precultured in 600 mL YPD medium at 30° C. overnight and collected by centrifuging at 3000×g for 10 min at 4° C. The cell pellets were washed twice by resuspending in 0.8% NaCl and centrifuged to remove any medium residue. Then, the cells were resuspended in 50 mL 0.8% NaCl and mixed with the 4% sodium alginate solution to obtain the final sodium alginate concentration of 3%. The mixture was dropped with a syringe aseptically into sterilized 2% CaCl2·2H2O on ice to form spheres (“beads”). The cell-immobilized beads were kept in the CaCl2) solution at 4° C. until use.
# The immobilized cells were incubated in YPD medium with 20 g/L glucose overnight at 30° C. to activate the immobilized cells. For each replicate test, 25 mL of D. armatus hydrolysate obtained from NREL was mixed with 15 mL beads and transferred into a 50 mL serum bottle. All serum bottles were incubated in a shaker at 150 rpm and 30° C. Samples were collected at 0, 12, and 24 h. The concentrations of sugars and ethanol in the samples were analyzed by HPLC.
# To test the effects of yield-increasing chemicals on the immobilized cells fermentation, 0.2% PheOH or TrpOH was added in the D. armatus hydrolysate obtained from NREL in serum bottles respectively (batch growth). PheOH was directly added into the hydrolysate medium. TrpOH was dissolved in DMSO at 20%, then added into the hydrolysate to achieve the desired final concentration. The same amount of DMSO was added into the control cultivations. S. cerevisae JAY270 cells were immobilized in calcium alginate. The immobilized cell beads were incubated in YPD medium overnight at 30° C. to activate the immobilized cells. Twenty-five mL of D. armatus hydrolysate was mixed with 15 mL immobilized cell beads (three biological replicates in each treatment) and incubated at 30° C. The ethanol yield was calculated at 24 hours. The content of glucose and ethanol in samples was analyzed using HPLC.
# [4] = 0.05%, high cell inoculum (OD600 at 0 h 1.96), 26 h test
# [5] = 0.05%, low cell inoculum (OD600 at 0 h 0.70), 26 h test
# [6] = 0.1%, high cell inoculum (OD600 at 0 h 1.96), 26 h test
# [7] = 0.1%, low cell inoculum (OD600 at 0 h 0.70), 26 h test
# [8] = 0.2%, high cell inoculum (OD600 at 0 h 1.96), 26 h test
# [9] = 0.2%, low cell inoculum (OD600 at 0 h 0.70), 26 h test
# [10] = 0.05%, high cell inoculum (OD600 at 0 h 0.85), 48 h test
# [11] = 0.05%, low cell inoculum (OD600 at 0 h 0.30), 48 h test
# [12] = 0.1%, high cell inoculum (OD600 at 0 h 0.85), 48 h test
# [13] = 0.1%, low cell inoculum (OD600 at 0 h 0.30), 48 h test
# [14] = 0.2%, high cell inoculum (OD600 at 0 h 0.85), 48 h test
# [15] = 0.2%, low cell inoculum (OD600 at 0 h 0.30), 48 h test
smiles,measurement,setting,value
"OCCc1ccccc1 [PheOH, 2-phenylethanol]","Glycerol concentration, decrease",[1]; PheOH 0.2%,21%
same,Biomass Yield,[1]; PheOH 0.2% (w/v),0.063 ± 0.008 g/g
same,Biomass yield % change vs. control,[1]; PheOH 0.2% (w/v),−23 ± 5 %
same,EtOH yield,[1]; PheOH 0.2% (w/v),0.435 ± 0.003 g/g
same,EtOH yield % change vs. control,[1]; PheOH 0.2% (w/v),5.3 ± 0.8 %
same,Glycerol yield,[1]; PheOH 0.2% (w/v),0.071 ± 0.001 g/g
same,Glycerol yield % change vs. control,[1]; PheOH 0.2% (w/v),−20 ± 2 %
same,EtOH yield % change vs. control,"[1]; PheOH 0.2% (w/v), listed as 2-phenylethanol",6%
same,"Final cell concentration, lower than control","[1]; PheOH 0.2%, 24 h",22%
same,Glucose remaining,"[1]; PheOH 0.2%, after 12 h (control completely consumed)",about 2 g/L
same,"Biomass yield, lower in comparison to control",[1],about 20%
same,OD600 at 26 h,"[2]; 0.05%, high cell inoculum (OD600 at 0 h 1.96)",4.24
same,EtOH yield,[2]; [4],0.47 g/g
same,EtOH yield % Δ from control,[2]; [4],3.1%
same,OD600 at 26 h,"[2]; 0.05%, low cell inoculum (OD600 at 0 h 0.70)",3.28
same,EtOH yield,[2]; [5],0.47 g/g
same,EtOH yield % Δ from control,[2]; [5],−1.9%
same,OD600 at 26 h,"[2]; 0.1%, high cell inoculum (OD600 at 0 h 1.96)",3.99
same,EtOH yield,[2]; [6],0.47 g/g
same,EtOH yield % Δ from control,[2]; [6],1.7%
same,OD600 at 26 h,"[2]; 0.1%, low cell inoculum (OD600 at 0 h 0.70)",2.83
same,EtOH yield,[2]; [7],0.45 g/g
same,EtOH yield % Δ from control,[2]; [7],−4.6%
same,OD600 at 26 h,"[2]; 0.2%, high cell inoculum (OD600 at 0 h 1.96)",3.53
same,EtOH yield,[2]; [8],0.48 g/g
same,EtOH yield % Δ from control,[2]; [8],4.9%
same,OD600 at 26 h,"[2]; 0.2%, low cell inoculum (OD600 at 0 h 0.70)",2.41
same,EtOH yield,[2]; [9],0.47 g/g
same,EtOH yield % Δ from control,[2]; [9],−1.1%
same,EtOH yield,"[3]; D. armatus hydrolysate, batch",0.46 g/g
same,EtOH yield % Δ from control,"[3]; D. armatus hydrolysate, batch",1.54%
"OCCc1c[nH]c2ccccc12 [TrpOH, tryptophol]",Biomass Yield,[1]; TrpOH 0.12% (w/v),0.063 ± 0.008 g/g
same,Biomass yield % change vs. control,[1]; TrpOH 0.12% (w/v),−28 ± 5 %
same,EtOH yield,[1]; TrpOH 0.12% (w/v),0.420 ± 0.012 g/g
same,EtOH yield % change vs. control,[1]; TrpOH 0.12% (w/v),6.5 ± 3.1 %
same,Glycerol yield,[1]; TrpOH 0.12% (w/v),0.070 ± 0.004 g/g
same,Glycerol yield % change vs. control,[1]; TrpOH 0.12% (w/v),−17 ± 2 %
same,EtOH yield % change vs. control,"[1]; TrpOH 0.12% (w/v), listed as tryptophol",10%
same,"Final cell concentration, lower than control","[1]; TrpOH 0.12%, 24 h",about 22%
same,"Glycerol concentration, lower than control","[1]; TrpOH 0.12%, 24 h",17%
same,"Final cell concentration, lower than control","[1]; TrpOH 0.12%, 24 h, listed as tryptophol",22%
same,"Biomass yield, lower in comparison to control",[1],about 20%
same,OD600 at 48 h,"[2]; 0.05%, high cell inoculum (OD600 at 0 h 0.85)",2.47
same,EtOH yield,[2]; [10],0.52 g/g
same,EtOH yield % Δ from control,[2]; [10],4.6%
same,OD600 at 48 h,"[2]; 0.05%, low cell inoculum (OD600 at 0 h 0.30)",1.17
same,EtOH yield,[2]; [11],0.50 g/g
same,EtOH yield % Δ from control,[2]; [11],5.7%
same,OD600 at 48 h,"[2]; 0.1%, high cell inoculum (OD600 at 0 h 0.85)",1.87
same,EtOH yield,[2]; [12],0.54 g/g
same,EtOH yield % Δ from control,[2]; [12],7.6%
same,OD600 at 48 h,"[2]; 0.1%, low cell inoculum (OD600 at 0 h 0.30)",0.79
same,EtOH yield,[2]; [13],0.50 g/g
same,EtOH yield % Δ from control,[2]; [13],2.2%
same,OD600 at 48 h,"[2]; 0.2%, high cell inoculum (OD600 at 0 h 0.85)",1.40
same,EtOH yield,[2]; [14],0.51 g/g
same,EtOH yield % Δ from control,[2]; [14],1.9%
same,OD600 at 48 h,"[2]; 0.2%, low cell inoculum (OD600 at 0 h 0.30)",0.51
same,EtOH yield,[2]; [15],0.52 g/g
same,EtOH yield % Δ from control,[2]; [15],5.9%
same,Ethanol yield higher than the value for free cell fermentation of D. armatus hydrolysate,[3],about 20%
same,Ethanol yield,"[3]; D. armatus hydrolysate, batch",0.49 g ethanol/g sugar
same,EtOH yield,"[3]; D. armatus hydrolysate, batch",0.49 g/g
same,EtOH yield % Δ from control,"[3]; D. armatus hydrolysate, batch",11.4% and 11.42%
